Assay results taken from US5480969A, “Antagonists of LHRH” (The Administrators of the Tulane Educational Fund, priority 1992, dated 1996).
Values after ≈ are worked out from the molar mass of the structure shown. Values joined by “and” are separate entries in the source; they are usually repeats but may differ in a detail not shown here. Equal values may be shown once. Read-outs that look alike come from different tables or passages of the source. Starred links: 1 amine or outer side, 2 acyl side, 3 side chain; linkers in the order of their positions; H or OH if unused. Non-standard residues stand in square brackets, D forms with d. Residues, ends and D or L forms follow the SMILES beside them. *: point of attachment. dAla(cis-4-NHCOPyz-cHex) = N[C@H](C[C@H]1CC[C@@H](NC(=O)c2cnccn2)CC1)C(=O)O; X2 = O=C(N[C@H]1CC[C@@H](C[C@H](N[*:1])C(=O)[*:2])CC1)c1cnccn1; d(hArg(Et2)) = CCN=C(NCC)NCCCC[C@@H](N)C(=O)O; X1 = O=C([C@@H](Cc1cnc2ccccc2c1)N[*:1])[*:2]; Ala(2-pyrazinyl) = N[C@@H](Cc1cnccn1)C(=O)O; hArg(Et2) = CCN=C(NCC)NCCCC[C@H](N)C(=O)O; dPhe(4-Cl) = N[C@H](Cc1ccc(Cl)cc1)C(=O)O; X3 = O=C([C@@H](Cc1cnccn1)N[*:1])[*:2]; d2Nal = N[C@H](Cc1ccc2ccccc2c1)C(=O)O; Lys(iPr) = CC(C)NCCCC[C@H](N)C(=O)O; d3Pal = N[C@H](Cc1cccnc1)C(=O)O; Cit = NC(=O)NCCC[C@H](N)C(=O)O; Picolinoyl = O=C(c1ccccn1)*; Abu = CC[C@H](N)C(=O)O

Experiments:
[1] = test system: rat mast cells; assay: In vitro histamine release in rat mast cells; type: cell-based
Experimental: (§1) AOA in rats was determined as reported [Humphries et al.]. The wheal area/10 μg of analog was calculated as described [Ljungqvist et al. 1987]. The histamine release was assayed in rat mast cells as reported [Hook et al., Karten et al. 1987]. […] The biological data are in Table III.
(§2) The AOA was determined in rats as reported [Humphries et al.]. […] The data from the determinations of AOA and ED50 are in Table IV.
(§3) The AOA was determined in rats, as reported (13).

[2] = Wheal area per 10 μg of analog; type: in vivo
Experimental: as §1

[3] = test system: rat mast cells; conditions: cited from earlier work; for Histamine release ED50: Table V
[4] = test system: rats; assay: Antiovulatory activity (AOA) in rats; type: in vivo, rat; conditions: Table IV / Example 2
Experimental: as §1, §2, §3
The very large number of bioassays which are required for a very large number of samples necessitate a minimal number of animals for the initial bioassays. In these initial bioassays, relatively small differences in potencies, expressed as percent AOA, may be "semi-quantitative," but even such small initial differences may reveal valid trends of potency for structural interpretation and new designs.
Bioassays are repeated as many times as required for quantitative data. […] The initial bioassay of Antide showing 63% at 0.125 μg and 89% at 0.25 μg was on the first sample of […]. The following three bioassays were on a resynthesized sample. However, both samples fulfilled all criteria for purity.

[5] = test system: rats; conditions: cited from earlier work; for AOA %/μg 0.25: 0.25 μg; for dose giving AOA of 100% (AOA100): background, literature antagonists
[6] = test system: gonadotropin secretion; conditions: overectomized monkeys; single or multiple doses; cited from earlier work
[7] = test system: testosterone secretion; conditions: male monkeys; single dose; cited from earlier work
[8] = Table III parent analogs from literature; cited from earlier work

With `CC(=O)N[C@H](Cc1ccc2ccccc2c1)C(=O)N[C@H](Cc1ccc(Cl)cc1)C(=O)N[C@H](Cc1cccnc1)C(=O)N[C@@H](CO)C(=O)N[C@@H](CCCCNC(=O)c1ccccn1)C(=O)N[C@H](CCCCNC(=O)[C@H](N)CO)C(=O)N[C@@H](CC(C)C)C(=O)N[C@@H](CCCCNC(C)C)C(=O)N1CCC[C@H]1C(=O)N[C@H](C)C(N)=O` (Ac-[d2Nal][dPhe(4-Cl)][d3Pal]SK(Picolinoyl)[dK](dS)L[Lys(iPr)]P[dA]-NH2) the “ED50 for hist. release” value [1] was 18 µg/mL.

In the case of `CC(=O)N[C@H](Cc1ccc2ccccc2c1)C(=O)N[C@H](Cc1ccc(Cl)cc1)C(=O)N[C@H](Cc1cccnc1)C(=O)N[C@@H](CO)C(=O)N[C@@H](C[C@H]1CC[C@@H](NC(=O)c2cnccn2)CC1)C(=O)N[C@H](Cc1cnccn1)C(=O)N[C@@H](CC(C)C)C(=O)N[C@@H](CCCCNC(C)C)C(=O)N1CCC[C@H]1C(=O)N[C@H](C)C(N)=O` (Ac-[d2Nal][dPhe(4-Cl)][d3Pal]S[X2][X3]L[Lys(iPr)]P[dA]-NH2), the “ED50 for hist. release” value [1] is reported as 88 ± 6.4 µg/mL.

`CC(=O)N[C@H](Cc1cnc2ccccc2c1)C(=O)N[C@H](Cc1ccc(Cl)cc1)C(=O)N[C@H](Cc1cccnc1)C(=O)N[C@@H](CO)C(=O)N[C@@H](CCCNC(N)=O)C(=O)N[C@H](CCCCNC(=O)c1ccccn1)C(=O)N[C@@H](CC(C)C)C(=O)N[C@@H](CCCNC(=N)N)C(=O)N1CCC[C@H]1C(=O)N[C@H](C)C(N)=O` [Analog 6 (Table VI), [Cit^5]-Argtide] (Ac-[X1][dPhe(4-Cl)][d3Pal]S[Cit][dK](Picolinoyl)LRP[dA]-NH2) gave an ED50 histamine release [1] of 94 µg/mL (≈ 62.6 µM).

For `CC(=O)N[C@H](Cc1ccc2ccccc2c1)C(=O)N[C@H](Cc1ccc(Cl)cc1)C(=O)N[C@H](Cc1cccnc1)C(=O)N[C@@H](CO)C(=O)N[C@@H](CCCCNC(=O)c1ccccn1)C(=O)N[C@H](CCCCNC(=O)[C@H](N)CO)C(=O)N[C@@H](CC(C)C)C(=O)N[C@@H](CCCCNC(C)C)C(=O)N1CCC[C@H]1C(=O)N[C@H](C)C(N)=O` [Analog 7 (Table III), [N-Ac-D-Nal^1,D-pClPhe^2,D-3-Pal^3,PicLys^5,D-(DSer)Lys.sup .6,ILys^8,D-Ala^10]-LHRH] (Ac-[d2Nal][dPhe(4-Cl)][d3Pal]SK(Picolinoyl)[dK](dS)L[Lys(iPr)]P[dA]-NH2), the Wheal area ([2]; Table III / Example 1, listed as 7) was 103.9 ± 5.2 mm^2 /10 μg and 103.9 mm^2 /10 μg.

In the case of `CC(=O)N[C@H](Cc1cnc2ccccc2c1)C(=O)N[C@H](Cc1ccc(Cl)cc1)C(=O)N[C@H](Cc1cccnc1)C(=O)N[C@@H](CO)C(=O)N[C@@H](C[C@H]1CC[C@@H](NC(=O)c2cnccn2)CC1)C(=O)N[C@H](CCCCNC(=O)c1ccccn1)C(=O)N[C@@H](CC(C)C)C(=O)N[C@@H](CCCCNC(C)C)C(=O)N1CCC[C@H]1C(=O)N[C@H](C)C(N)=O` [Analog 11 (Table III), [N-Ac-D-3-Qal^1, D-pClPhe^2, D-3-Pal^3, c-PzACAla^5, D-PicLys^6, ILys^8, D-Ala^10] LHRH] (Ac-[X1][dPhe(4-Cl)][d3Pal]S[X2][dK](Picolinoyl)L[Lys(iPr)]P[dA]-NH2), the “ED50 for hist. release” value [1] is reported as 171 ± 17 µg/mL.

For `CCN=C(NCC)NCCCC[C@H](NC(=O)[C@H](CC(C)C)NC(=O)[C@@H](CCCCNC(=NCC)NCC)NC(=O)[C@H](Cc1ccc(O)cc1)NC(=O)[C@H](CO)NC(=O)[C@@H](Cc1cccnc1)NC(=O)[C@@H](Cc1ccc(Cl)cc1)NC(=O)[C@@H](Cc1ccc2ccccc2c1)NC(C)=O)C(=O)N1CCC[C@H]1C(=O)N[C@H](C)C(N)=O` [RS-26306, [N-Ac-D-2-Nal^1, D-pClPhe^2, D-3-Pal^3, D-hArg(Et2)^6, hArg(Et)2^8, D-Ala^10] LHRH] (Ac-[d2Nal][dPhe(4-Cl)][d3Pal]SY[d(hArg(Et2))]L[hArg(Et2)]P[dA]-NH2), the “Histamine release ED50” value [3] is given as 13 µg/mL.

For `CC(=O)N[C@H](Cc1ccc2ccccc2c1)C(=O)N[C@H](Cc1ccc(Cl)cc1)C(=O)N[C@H](Cc1cccnc1)C(=O)N[C@@H](CO)C(=O)N[C@@H](Cc1cnccn1)C(=O)N[C@H](C[C@H]1CC[C@@H](NC(=O)c2cnccn2)CC1)C(=O)N[C@@H](CC(C)C)C(=O)N[C@@H](CCCCNC(C)C)C(=O)N1CCC[C@H]1C(=O)N[C@H](C)C(N)=O` [compound 18] (Ac-[d2Nal][dPhe(4-Cl)][d3Pal]S[Ala(2-pyrazinyl)][dAla(cis-4-NHCOPyz-cHex)]L[Lys(iPr)]P[dA]-NH2), the “ED50 for hist. release” value ([1]; concentration releasing 50% of total releasable histamine, Table III / Example 1) was 28 ± 4.7 µg/mL and the Wheal area ([2]; Table III / Example 1) was 101.6 ± 2.2 mm^2 /10 μg.

Compound `CC[C@H](NC(=O)[C@@H](CCCCNC(=O)c1ccccn1)NC(=O)[C@H](CCCCNC(=O)c1ccccn1)NC(=O)[C@H](CO)NC(=O)[C@@H](Cc1cccnc1)NC(=O)[C@@H](Cc1ccc(Cl)cc1)NC(=O)[C@@H](Cc1cnc2ccccc2c1)NC(C)=O)C(=O)N[C@@H](CCCCNC(C)C)C(=O)N1CCC[C@H]1C(=O)N[C@H](C)C(N)=O` [compound 20] (Ac-[X1][dPhe(4-Cl)][d3Pal]SK(Picolinoyl)[dK](Picolinoyl)[Abu][Lys(iPr)]P[dA]-NH2) has a Wheal area ([2]; Table III / Example 1) of 103.9 ± 3.7 mm^2 /10 μg.

Compound `CC(=O)N[C@H](Cc1ccc2ccccc2c1)C(=O)N[C@H](Cc1ccc(Cl)cc1)C(=O)N[C@H](Cc1cccnc1)C(=O)N[C@@H](CO)C(=O)N[C@@H](CCCCNC(=O)c1ccccn1)C(=O)NC1CCN(C(CC(C)C)C(=O)N[C@@H](CCCCNC(C)C)C(=O)N2CCC[C@H]2C(=O)N[C@H](C)C(N)=O)C1=O` (stereo partly shown) [compound 21] has a Wheal area ([2]; Table III / Example 1) of 99.5 ± 4.5 mm^2 /10 μg.

Compound `CC(=O)N[C@H](Cc1cnc2ccccc2c1)C(=O)N[C@H](Cc1ccc(Cl)cc1)C(=O)N[C@H](Cc1cccnc1)C(=O)N[C@@H](CO)C(=O)N[C@@H](CCCCNC(=O)c1ccccn1)C(=O)NC1CCN(C(CC(C)C)C(=O)N[C@@H](CCCCNC(C)C)C(=O)N2CCC[C@H]2C(=O)N[C@H](C)C(N)=O)C1=O` (stereo partly shown) [compound 22] has a Wheal area ([2]; Table III / Example 1) of 89.5 ± 5.5 mm^2 /10 μg.

In the case of “N-Ac-D-3-Qal, D-pClPhe, D-3-Pal, Ser, c-PzACAla, D-PicLys, Leu, Arg, Pro, D-AlaNH2 [Argtide]”, the “% AOA/μg dosage 0.125” value ([4]; 0.125 μg) is listed as 63%, the “% AOA/μg dosage 0.25” value ([4]; 0.25 μg) is listed as 89% and the “Histamine release ED50” value [3] is listed as 31 µg/mL. The ED50 histamine release ([3]; Table VI / Example 3 text, from Janecka et al.) was 31 µg/mL, the “ED50 histamine release” value [1] was 30.8 ± 0.59 µg/mL and the “column 0.125 (AOA, head not given)” value ([5]; Table V comparison of leading antagonists, column 0.125) was 63. The “AOA %/μg 0.25” value ([5]; rats, Table VI / Example 3 text, from Janecka et al.) was 88%.

For [D-Phe^2, Pro^3, DTrp^6 ] LHRH, the “dose giving AOA of 100% (AOA100)” value [5] is given as 750 μg/rat.

For “[N-Ac-D-2-Nal^1 ; D-pClPhe^2, D-Trp^3, D-Arg^6, D-Ala^10 ] LHRH”, the “dose giving AOA of 100% (AOA100)” value [5] is given as “ca. 0.5 μg/rat”.

For “[N-Ac-D-2-Nal^1, D-pClPhe^2, D-3-Pal^3, Arg^5, D-Glu(AA)^6, D-Ala^10 ] LHRH [Nal-Glu]”, the “column 1.5 (AOA, head not given)” value ([5]; Table V, column 1.5) is given as 100.

For “[N-Ac-D-2-Nal^1, D-pClPhe^2, D-3-Pal^3, D-Arg^6, Trp^7, D-Ala^10 ] LHRH”, the “dose giving AOA of 100% (AOA100)” value [5] is given as “ca. 0.5 μg/rat”.

In the case of “[N-Ac-D-2-Nal^1, D-pClPhe^2, D-3-Pal^3, NicLys^5, D-NicLys^6, Ilys^8, D-Ala^10 ] LHRH [Antide]”, the “ED50 for hist. release” value ([3]; Table III parent analogs from literature) is listed as 300 µg/mL, the “Histamine release ED50” value [3] is listed as greater than 300 µg/mL and the “ED50 for histamine release” value ([3]; background) is listed as 300 µg/mL. The “histamine release (in words)” value ([3]; background) was “negligible”, the “inhibition of gonadotropin secretion” value [6] was “Prolonged duration of inhibition” and the “suppression of testosterone secretion” value [7] was “long-term suppression”. For the same compound, the Wheal area [8] was 132.7 mm^2 /10 μg, the “column 1.0 (AOA, head not given)” value ([5]; Table V, column 1.0) was 100 and the “dose giving AOA of 100% (AOA100)” value [5] was 1 μg/rat. For the same compound, the “AOA %/μg 0.25” value ([5]; rats, Table III parent analogs from literature) was “inactive” and the “AOA %/μg 0.5” value ([5]; rats, 0.5 μg, Table III parent analogs from literature) was 36%.

For “[N-Ac-D-2-Nal^1, DpClPhe^2, D-Trp^3, D-Cit^6, D-Ala^10 ] LHRH”, the “dose giving AOA of 100% (AOA100)” value [5] is listed as 3 μg/rat.
